Assay results taken from patent publication US4355026A, “4-Demethoxy,11-deoxy anthracycline derivatives” (priority 1980, dated 1982).
In brackets after ≈: the same amount, converted by molar mass. Where two headings read alike, the source gives them in different places.

Tests used:
[1] = system: L1210 leukemia cells; experiment: Antitumor activity on CDFI mouse leukemia induced by mouse L1210 leukemia cells; format: in vivo, CDFI mice; conditions: intraperitoneal, 10 consecutive days
Description: B. Antitumor Activity on CDFI Mouse Leukemia Induced by Mouse L1210 Leukemia cells
L1210 leukemia cells of mice were intraperitoneally transplanted in an amount of 1×10^5 cells/mouse in CDFI mice. Starting 24 hours after the transplantation, each of the test compounds was intraperitoneally administered to the mice for 10 consecutive days. the survival rate (T/C, %) was calculated in comparison with a control group (to which physiological saline was administered).

[2] = system: L1210 leukemia cells; experiment: Inhibitory effect on growth of L1210 cultivated leukemic cells of mice; format: cell-based; conditions: Mus musculus, RPMI 1640, 20% calf serum, 37° C.
Description: (§1) A. Inhibitory Effect on Growth, DNA Synthesis and RNA Synthesis of L1210 Cultivated Leukemic Cells of Mice
For example, L1210 cells were inoculated in a concentration of 5×10^4 cells/ml in an RPMI 1640 culture medium (Roswell Park Memorial Institute 1640) containing 20% calf serum and, simultaneously, representative compounds of the present invention were added in a concentration of 0.1 and 0.5 μg/ml. The cells were cultivated in a CO2 generator at 37° C. The 50% growth inhibitory concentration with respect to a control group was then determined.

[3] = system: L1210 leukemia cells, RNA synthesis; experiment: Inhibition of RNA synthesis (14C-uridine incorporation) of L1210 cultivated leukemic cells; format: cell-based; conditions: Mus musculus, L1210, 1 h, 14C-uridine, 60 minutes, 37° C.
Description: as §1
(§2) Separately, the above L1210 cultivated cells were suspended in a concentration of 5×10^5 cells/ml in an RPMI 1640 medium containing 10% calf serum and cultivated for 1 to 2 hours in a CO2 incubator at 37° C. Then, representative test compounds were added in various concentrations, and 15 minutes later, ^14 C-uridine (0.05 μCi/ml) or ^14 C-thymidine (0.05 μCi/ml) were added. The cells were incubated at 37° C. for 60 minutes. A 10% aqueous trichloroacetic acid solution was added to the incubation medium to stop the reaction and simultaneously precipitate acid-insoluble matter. The acid-insoluble matter was washed three times with a 5 to 10% aqueous solution of trichloroacetic acid and then dissolved in formic acid. The radioactivity of the acid-insoluble matter was measured. From the ratio of incorporated radiation to that of a control group, the concentrations which inhibited radiation by 10%, 50% and 90% respectively were measured.

[4] = system: Bacillus subtilis NRRB- 558; experiment: MIC on nutrient agar medium; format: cell-based; conditions: NRRB558
Text: (§3) The compounds of formula I provided by the present invention are also characterized by their antimicrobial activity. Table 3 summarizes the minimum inhibitory concentrations (MIC) of representative compounds of the present invention against various microorganisms on a nutrient agar medium.

[5] = system: Klebsiella pneumonia PCI 602; experiment: MIC on nutrient agar medium; format: cell-based; conditions: Klebsiella pneumoniae, PCI602
Text: as §3

[6] = system: Bacillus cereus ATCC 10702; experiment: MIC on nutrient agar medium; format: cell-based; conditions: ATCC10702
Text: as §3

[7] = system: Sarcina lutea PCI 1001; experiment: MIC on nutrient agar medium; format: cell-based; conditions: Micrococcus luteus, PCI1001
Text: as §3

[8] = system: Pseudomonas aeruginosa A3; experiment: MIC on nutrient agar medium; format: cell-based
Text: as §3

[9] = system: Corynebacterium bovis 1810; experiment: MIC on nutrient agar medium; format: cell-based
Text: as §3

[10] = system: Candida albicans 3147; experiment: MIC on nutrient agar medium; format: cell-based
Text: as §3

[11] = system: Microccus lysodeikticus IFQ 3333; experiment: MIC on nutrient agar medium; format: cell-based
Text: as §3

[12] = system: Mycobacterium smegmatis ATCC 607; experiment: MIC on nutrient agar medium; format: cell-based; conditions: Mycolicibacterium smegmatis, ATCC607
Text: as §3

[13] = system: Bacillus megatherium APF; experiment: MIC on nutrient agar medium; format: cell-based
Text: as §3

[14] = system: Bacillus subtilis PCI 219; experiment: MIC on nutrient agar medium; format: cell-based; conditions: PCI219
Text: as §3

[15] = system: Escherichia coli NIHJ; experiment: MIC on nutrient agar medium; format: cell-based
Text: as §3

[16] = system: Staphylococcus aureus FDA 209; experiment: MIC on nutrient agar medium; format: cell-based; conditions: FDA209
Text: as §3

[17] = system: Staphylococcus aureus smith; experiment: MIC on nutrient agar medium; format: cell-based
Text: as §3

[18] = system: Shigella flexneri 46 JS 11811; experiment: MIC on nutrient agar medium; format: cell-based; conditions: 46JS11811
Text: as §3

[19] = system: Microccus flavus FDA 16; experiment: MIC on nutrient agar medium; format: cell-based
Text: as §3

[20] = system: Salmonella typhi T - 63; experiment: MIC on nutrient agar medium; format: cell-based; conditions: Salmonella enterica
Text: as §3

[21] = system: L1210 leukemia cells, DNA synthesis; experiment: Inhibition of DNA synthesis (14C-thymidine incorporation) of L1210 cultivated leukemic cells; format: cell-based; conditions: Mus musculus, L1210, 1 h, 14C-thymidine, 60 minutes, 37° C.
Description: as §1, §2

Question: Which results are given for `CC(=O)[C@]1(O)Cc2cc3c(c(O)c2[C@@H](O[C@H]2C[C@H](N)[C@H](O)[C@H](C)O2)C1)C(=O)c1ccccc1C3=O` (single isomer, unassigned; isomer 4) [4-Demethoxy-11-deoxy-daunomycin (7S,9S,1'α)isomer, 4-Demethoxy-11-deoxydaunomycin]?
Answer: Survival rate (T/C, %) ([1]; 0.15 mg/kg/day): 103%; Survival rate (T/C, %) ([1]; 0.3 mg/kg/day): 115%; Survival rate (T/C, %) ([1]; 0.6 mg/kg/day): 115%; Survival rate (T/C, %) ([1]; 1.25 mg/kg/day): 135%; Survival rate (T/C, %) ([1]; 2.5 mg/kg/day): 160%; IC50 ([2]; L1210, 24 h, 1 day later, read-out: IC50 growth, 1 day later): 0.09 µg/mL (≈ 0.187 µM); IC50 ([2]; L1210, 48 h, 2 days later, read-out: IC50 growth, 2 days later): 0.01 µg/mL (≈ 0.0208 µM); IC50 ([3]; read-out: IC50 RNA synthesis): 0.34 µg/mL (≈ 0.706 µM); IC90 ([3]; 90% inhibition, read-out: IC90 RNA synthesis): 2.5 µg/mL (≈ 5.19 µM); MIC [4]: 6.25 µg/mL (≈ 13 µM); MIC [5]: 100 µg/mL (≈ 208 µM); MIC [6]: 12.5 µg/mL (≈ 26 µM); MIC [7]: 6.25 µg/mL (≈ 13 µM); MIC [8]: > 100 µg/mL; MIC [9]: 6.25 µg/mL (≈ 13 µM); MIC [10]: 100 µg/mL (≈ 208 µM); MIC [11]: 12.5 µg/mL (≈ 26 µM); MIC [12]: 12.5 µg/mL (≈ 26 µM); MIC [13]: 6.25 µg/mL (≈ 13 µM); MIC [14]: 3.12 µg/mL (≈ 6.48 µM); MIC [15]: > 100 µg/mL; MIC [16]: 25 µg/mL (≈ 51.9 µM); MIC [17]: 12.5 µg/mL (≈ 26 µM); MIC [18]: 100 µg/mL (≈ 208 µM); MIC [19]: 6.25 µg/mL (≈ 13 µM); MIC [20]: > 100 µg/mL; IC50 ([21]; read-out: IC50 DNA synthesis): 0.22 µg/mL (≈ 0.457 µM); IC90 ([21]; 90% inhibition, read-out: IC90 DNA synthesis): 2.5 µg/mL (≈ 5.19 µM)
